According to BindingDB's records for doi:10.1021/jm020999w (University of Firenze, 2003):

Molecular target: Gamma-aminobutyric acid receptor subunit alpha-1/beta-2/gamma-2 (Rattus norvegicus, UniProt P62813+P63138+P18508)
Test: Binding affinity for recombinant rat GABA-A receptor alpha-1-beta-2-gamma-2 subunits expressed in HEK293 cells

Gamma-aminobutyric acid receptor subunit alpha-1/beta-2/gamma-2, sequence (P62813 whole entry): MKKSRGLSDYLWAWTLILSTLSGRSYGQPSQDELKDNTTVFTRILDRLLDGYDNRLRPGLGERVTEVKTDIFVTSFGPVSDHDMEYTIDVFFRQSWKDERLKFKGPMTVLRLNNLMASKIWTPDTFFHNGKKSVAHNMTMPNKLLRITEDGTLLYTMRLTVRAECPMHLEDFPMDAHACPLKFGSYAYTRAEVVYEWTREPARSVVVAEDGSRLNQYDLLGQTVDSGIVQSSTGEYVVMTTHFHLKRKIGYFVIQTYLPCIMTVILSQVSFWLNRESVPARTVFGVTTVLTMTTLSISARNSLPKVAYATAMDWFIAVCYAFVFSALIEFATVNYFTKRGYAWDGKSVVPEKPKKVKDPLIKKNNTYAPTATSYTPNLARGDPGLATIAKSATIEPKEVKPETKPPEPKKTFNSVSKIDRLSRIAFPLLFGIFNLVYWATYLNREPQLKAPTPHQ
Gamma-aminobutyric acid receptor subunit alpha-1/beta-2/gamma-2, sequence (P63138 whole entry): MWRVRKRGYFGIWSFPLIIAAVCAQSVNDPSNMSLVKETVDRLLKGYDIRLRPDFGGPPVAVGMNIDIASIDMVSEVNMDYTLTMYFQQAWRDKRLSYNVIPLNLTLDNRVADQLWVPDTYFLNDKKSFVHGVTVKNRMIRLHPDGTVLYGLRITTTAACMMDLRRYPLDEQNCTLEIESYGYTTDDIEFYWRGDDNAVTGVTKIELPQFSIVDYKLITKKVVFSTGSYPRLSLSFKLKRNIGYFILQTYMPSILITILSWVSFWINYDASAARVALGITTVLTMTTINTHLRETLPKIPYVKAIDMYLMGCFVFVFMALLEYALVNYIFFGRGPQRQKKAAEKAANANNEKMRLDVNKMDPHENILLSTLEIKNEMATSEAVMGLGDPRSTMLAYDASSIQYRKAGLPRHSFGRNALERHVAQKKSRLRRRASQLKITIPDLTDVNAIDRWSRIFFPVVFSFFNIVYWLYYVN
Gamma-aminobutyric acid receptor subunit alpha-1/beta-2/gamma-2, sequence (P18508 whole entry): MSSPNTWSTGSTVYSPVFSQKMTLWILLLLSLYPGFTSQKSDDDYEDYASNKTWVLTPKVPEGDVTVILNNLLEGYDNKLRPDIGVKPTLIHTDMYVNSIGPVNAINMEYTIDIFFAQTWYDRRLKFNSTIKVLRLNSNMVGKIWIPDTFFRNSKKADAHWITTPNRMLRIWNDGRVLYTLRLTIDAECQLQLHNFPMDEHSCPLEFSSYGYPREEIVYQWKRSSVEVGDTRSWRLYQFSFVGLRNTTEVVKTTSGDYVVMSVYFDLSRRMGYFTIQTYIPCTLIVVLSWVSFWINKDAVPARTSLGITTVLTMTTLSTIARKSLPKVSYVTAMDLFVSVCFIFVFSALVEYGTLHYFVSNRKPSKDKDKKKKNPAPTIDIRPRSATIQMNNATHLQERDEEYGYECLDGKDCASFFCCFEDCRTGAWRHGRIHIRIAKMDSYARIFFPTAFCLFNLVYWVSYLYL

Row | SMILES | Ki [nM]
1 | O=c1c(-c2ccsc2)cnc2c(-c3cccc(Br)c3)c[nH]n12 [3-(3-Bromo-phenyl)-6-thiophen-3-yl-4H-pyrazolo[1,5-a]pyrimidin-7-one] | 10
2 | O=c1c(-c2ccsc2)cnc2c(-c3cccc(C(F)(F)F)c3)c[nH]n12 [6-Thiophen-3-yl-3-(3-trifluoromethyl-phenyl)-4H-pyrazolo[1,5-a]pyrimidin-7-one] | 10
